The first test has as its system mitochondria or chloroplast of Chlamydomonas reinhardtii. The test can be described thus: Subcellular localization of Venus reporter by epifluorescence microscopy (manual targeting assignment). It is filed as cell-based. Particulars: manual targeting assignment of the Venus reporter construct in Chlamydomonas: Neither / Mitochondria / Chloroplast / Dual, (partial) = partial targeting. Summed up:
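Targeting peptide variants fused to Venus reporter, transformed into Chlamydomonas wild-type T222+ (CC-5101); three independent transformant lines per construct. Localization assigned manually from epifluorescence images using chlorophyll autofluorescence for chloroplast and 0.1 μM MitoTracker Red CMXRos (30 min) for mitochondria. Automated segmentation used for validation.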
For “MQVTMKSSAVSGQRVMGWIRDFGRRIERVGQHTRDATIQTIAVAQQAANVAATLRG [c.S1D.R]”, the Localisation result was “Mitochondria”.

Consider “MQVTMKSSAVSGQRVMGWIRDFGRRIERVGQHTRDATIQTIAVAQQAANVAATLRGLTQTAESFRGVSSQFFDAPNGPSVKQVLIEDEW [c.S1D.R.m]”, for which the Localisation entry was “Dual”.

On to “MQVTMKSSAVSGQRVMGWIRDFGRRIERVGQHTRDATIQTIAVAQQAANVAATLRGSVRRAQLQVVASSRKQMGRWRSIDAGVDASDDQ [c.S1D.R.c]”, for which the Localisation entry is “Chloroplast”.

“MQVTMKSSAVSGQRVMLKKVGQSLVPFAKAG [c.MH.K]”: the Localisation result is on record as “Neither”.

On to “MQVTMKSSAVSGQRVMLKKVGQSLVPFAKAGLTQTAESFKGVSSQFFDAPNGPSVKQVLIEDEW [c.MH.K.m]”, for which the Localisation result was “Neither”.

In the case of “MQVTMKSSAVSGQRVMLKKVGQSLVPFAKAGSVRRAQLQVVASSRKQMGRWRSIDAGVDASDDQ [c.MH.K.c]”, the Localisation entry was “Chloroplast”.

Regarding “MQVTMKSSAVSGQRVMLKRVGQSLVPFARAG [c.MH.R]”, the Localisation entry was “Neither”.

“MQVTMKSSAVSGQRVMLKRVGQSLVPFARAGLTQTAESFRGVSSQFFDAPNGPSVKQVLIEDEW [c.MH.R.m]”: the Localisation result is “Neither”.

Consider “MQVTMKSSAVSGQRVMLKRVGQSLVPFARAGSVRRAQLQVVASSRKQMGRWRSIDAGVDASDDQ [c.MH.R.c]”, for which the Localisation result is on record as “Chloroplast”.

Turning to “MQVTMKSSAVSGQRVRYYGNGVSCNRRGCSVDWGRAIGIIGNNAAANLTTGGRAGWRG [c.EHF.R]”, the Localisation entry was “Chloroplast (partial)”.

Turning to “MQVTMKSSAVSGQRVRYYGNGVSCNRRGCSVDWGRAIGIIGNNAAANLTTGGRAGWRGLTQTAESFRGVSSQFFDAPNGPSVKQVLIEDEW [c.EHF.R.m]”, the Localisation result was “Chloroplast”.

In the case of “MQVTMKSSAVSGQRVRYYGNGVSCNRRGCSVDWGRAIGIIGNNAAANLTTGGRAGWRGSVRRAQLQVVASSRKQMGRWRSIDAGVDASDDQ [c.EHF.R.c]”, the Localisation result is “Chloroplast”.

For “MQVTMKSSAVSGQRVSFLTTFRDLAIRAARSAGQSVLSTLSCRLSNTC [c.B2I.R]”, the Localisation entry is given as “Mitochondria (partial)”.

On to “MQVTMKSSAVSGQRVSFLTTFRDLAIRAARSAGQSVLSTLSCRLSNTCLTQTAESFRGVSSQFFDAPNGPSVKQVLIEDEW [c.B2I.R.m]”, for which the Localisation result is listed as “Dual”.

In the case of “MQVTMKSSAVSGQRVSFLTTFRDLAIRAARSAGQSVLSTLSCRLSNTCSVRRAQLQVVASSRKQMGRWRSIDAGVDASDDQ [c.B2I.R.c]”, the Localisation result is “Chloroplast”.

As to “MRYYGNGVSCNRRGCSVDWGRAIGIIGNNAAANLTTGGRAGWRG [EHF.R]”, the Localisation entry is reported as “Neither”.

Turning to “MRYYGNGVSCNRRGCSVDWGRAIGIIGNNAAANLTTGGRAGWRGLTQTAESFRGVSSQFFDAPNGPSVKQVLIEDEW [EHF.R.m]”, the Localisation result is listed as “Chloroplast”.

On to “MRYYGNGVSCNRRGCSVDWGRAIGIIGNNAAANLTTGGRAGWRGSVRRAQLQVVASSRKQMGRWRSIDAGVDASDDQ [EHF.R.c]”, for which the Localisation entry is recorded as “Chloroplast”.

As to “MSFLTTFRDLAIRAARSAGQSVLSTLSCRLSNTC [B2I.R]”, the Localisation result is “Mitochondria”.

Regarding “MSFLTTFRDLAIRAARSAGQSVLSTLSCRLSNTCLTQTAESFRGVSSQFFDAPNGPSVKQVLIEDEW [B2I.R.m]”, the Localisation result is “Mitochondria”.

As to “MSFLTTFRDLAIRAARSAGQSVLSTLSCRLSNTCSVRRAQLQVVASSRKQMGRWRSIDAGVDASDDQ [B2I.R.c]”, the Localisation entry was “Mitochondria”.

Regarding “MSVRRAQLQVVASSRKQMGRWRSIDAGVDASDDQ [-.c]”, the Localisation entry is on record as “Neither”.

The test is the same for the next values; noted with them: peptide-Venus reporter construct expressed in Chlamydomonas reinhardtii; manual targeting assignment (Neither / Mitochondria / Chloroplast / Dual; partial = partial targeting).
Consider “MQVTMKSSAVSGQRVMKYYGNGVHCTKSGCSVNWGEAFSAGVHRLANGGNGFW [c.LCA.K]”, for which the Localisation result is “Neither”.

As for “MQVTMKSSAVSGQRVMKYYGNGVHCTKSGCSVNWGEAFSAGVHRLANGGNGFWLTQTAESFRGVSSQFFDAPNGPSVKQVLIEDEW [c.LCA.K.m]”, the Localisation result was “Chloroplast”.

Consider “MQVTMKSSAVSGQRVMKYYGNGVHCTKSGCSVNWGEAFSAGVHRLANGGNGFWSVRRAQLQVVASSRKQMGRWRSIDAGVDASDDQ [c.LCA.K.c]”, for which the Localisation entry is recorded as “Chloroplast (partial)”.

Consider “MQVTMKSSAVSGQRVMKYYGNGVHCTRSGCSVNWGEAFSAGVHRLANGGNGFW [c.LCA.R]”, for which the Localisation result is on record as “Neither”.

Regarding “MQVTMKSSAVSGQRVMKYYGNGVHCTRSGCSVNWGEAFSAGVHRLANGGNGFWLTQTAESFRGVSSQFFDAPNGPSVKQVLIEDEW [c.LCA.R.m]”, the Localisation result is recorded as “Neither”.

For the sequence “MQVTMKSSAVSGQRVMKYYGNGVHCTRSGCSVNWGEAFSAGVHRLANGGNGFWSVRRAQLQVVASSRKQMGRWRSIDAGVDASDDQ [c.LCA.R.c]”, the Localisation entry is recorded as “Chloroplast”.

Consider “MQVTMKSSAVSGQRVMVNYGNGVSCSKTKCSVNWGIITHQAFRVTSGVASG [c.B15.K]”, for which the Localisation entry is “Neither”.

Consider “MQVTMKSSAVSGQRVMVNYGNGVSCSKTKCSVNWGIITHQAFRVTSGVASGLTQTAESFRGVSSQFFDAPNGPSVKQVLIEDEW [c.B15.K.m]”, for which the Localisation result is recorded as “Chloroplast”.

In the case of “MQVTMKSSAVSGQRVMVNYGNGVSCSKTKCSVNWGIITHQAFRVTSGVASGSVRRAQLQVVASSRKQMGRWRSIDAGVDASDDQ [c.B15.K.c]”, the Localisation entry is given as “Chloroplast”.

For the sequence “MQVTMKSSAVSGQRVMVNYGNGVSCSRTRCSVNWGIITHQAFRVTSGVASG [c.B15.R]”, the Localisation result is recorded as “Chloroplast”.

Take “MQVTMKSSAVSGQRVMVNYGNGVSCSRTRCSVNWGIITHQAFRVTSGVASGLTQTAESFRGVSSQFFDAPNGPSVKQVLIEDEW [c.B15.R.m]”: the Localisation result is recorded as “Chloroplast”.

Regarding “MQVTMKSSAVSGQRVMVNYGNGVSCSRTRCSVNWGIITHQAFRVTSGVASGSVRRAQLQVVASSRKQMGRWRSIDAGVDASDDQ [c.B15.R.c]”, the Localisation entry was “Chloroplast”.

With “MQVTMKSSAVSGQRVMWLSKTAKKLENSAKKRISEGIAIAIKGGSRSVRRAQLQVVASSRKQMGRWRSIDAGVDASDDQ [c.CP3.K.c]”, the Localisation result is recorded as “Neither”.

In the case of “MQVTMKSSAVSGQRVMWLSRTARRLENSARRRISEGIAIAIRGGSRSVRRAQLQVVASSRKQMGRWRSIDAGVDASDDQ [c.CP3.R.c]”, the Localisation result is listed as “Chloroplast”.

Regarding “MVNYGNGVSCSKTKCSVNWGIITHQAFRVTSGVASG [B15.K]”, the Localisation result is “Neither”.

Consider “MVNYGNGVSCSKTKCSVNWGIITHQAFRVTSGVASGLTQTAESFRGVSSQFFDAPNGPSVKQVLIEDEW [B15.K.m]”, for which the Localisation result was “Neither”.

On to “MVNYGNGVSCSKTKCSVNWGIITHQAFRVTSGVASGSVRRAQLQVVASSRKQMGRWRSIDAGVDASDDQ [B15.K.c]”, for which the Localisation result was “Chloroplast”.

In the case of “MVNYGNGVSCSRTRCSVNWGIITHQAFRVTSGVASG [B15.R]”, the Localisation entry was “Neither”.

Staying with this test, now noted: targeting of the Venus reporter fused to the peptide, expressed in Chlamydomonas reinhardtii; manual assignment from epifluorescence microscopy; full or partial.
For “MQVTMKSSAVSGQRVMGWIRDFGKRIERVGQHTRDATIQTIAVAQQAANVAATLKGLTQTAESFRGVSSQFFDAPNGPSVKQVLIEDEW [c.S1D.K.m]”, the Localisation entry is reported as “Dual”.

As to “MQVTMKSSAVSGQRVMGWIRDFGKRIERVGQHTRDATIQTIAVAQQAANVAATLKGSVRRAQLQVVASSRKQMGRWRSIDAGVDASDDQ [c.S1D.K.c]”, the Localisation result is recorded as “Chloroplast”.

Consider “MQVTMKSSAVSGQRVMKYYGNGVSCNKKGCSVDWGKAIGIIGNNAAANLTTGGKAGWKG [c.EHF.K]”, for which the Localisation entry was “Neither”.

On to “MQVTMKSSAVSGQRVMKYYGNGVSCNKKGCSVDWGKAIGIIGNNAAANLTTGGKAGWKGLTQTAESFRGVSSQFFDAPNGPSVKQVLIEDEW [c.EHF.K.m]”, for which the Localisation entry is reported as “Chloroplast”.

Consider “MQVTMKSSAVSGQRVMKYYGNGVSCNKKGCSVDWGKAIGIIGNNAAANLTTGGKAGWKGSVRRAQLQVVASSRKQMGRWRSIDAGVDASDDQ [c.EHF.K.c]”, for which the Localisation entry is “Chloroplast”.

With “MQVTMKSSAVSGQRVMSFLTTFKDLAIKAAKSAGQSVLSTLSCKLSNTC [c.B2I.K]”, the Localisation entry was “Mitochondria (partial)”.

With “MQVTMKSSAVSGQRVMSFLTTFKDLAIKAAKSAGQSVLSTLSCKLSNTCLTQTAESFRGVSSQFFDAPNGPSVKQVLIEDEW [c.B2I.K.m]”, the Localisation result is reported as “Mitochondria”.

As for “MQVTMKSSAVSGQRVMSFLTTFKDLAIKAAKSAGQSVLSTLSCKLSNTCSVRRAQLQVVASSRKQMGRWRSIDAGVDASDDQ [c.B2I.K.c]”, the Localisation entry was “Chloroplast (partial)”.

Take “MQVTMKSSAVSGQRVMWLSKTAKKLENSAKKRISEGIAIAIKGGSR [c.CP3.K]”: the Localisation entry is given as “Neither”.

As for “MQVTMKSSAVSGQRVMWLSKTAKKLENSAKKRISEGIAIAIKGGSRLTQTAESFRGVSSQFFDAPNGPSVKQVLIEDEW [c.CP3.K.m]”, the Localisation result is recorded as “Chloroplast”.

For “MQVTMKSSAVSGQRVMWLSRTARRLENSARRRISEGIAIAIRGGSR [c.CP3.R]”, the Localisation result was “Chloroplast (partial)”.

On to “MQVTMKSSAVSGQRVMWLSRTARRLENSARRRISEGIAIAIRGGSRLTQTAESFRGVSSQFFDAPNGPSVKQVLIEDEW [c.CP3.R.m]”, for which the Localisation result is recorded as “Neither”.

As to “MQVTMKSSAVSGQRVNIVVYWNFTLWHMDINARNAGCDGEGS [c.RP1.K]”, the Localisation result is listed as “Neither”.

Take “MQVTMKSSAVSGQRVNIVVYWNFTLWHMDINARNAGCDGEGSLTQTAESFRGVSSQFFDAPNGPSVKQVLIEDEW [c.RP1.K.m]”: the Localisation entry was “Neither”.

Take “MQVTMKSSAVSGQRVNIVVYWNFTLWHMDINARNAGCDGEGSSVRRAQLQVVASSRKQMGRWRSIDAGVDASDDQ [c.RP1.K.c]”: the Localisation entry is reported as “Neither”.

As for “MQVTMKSSAVSGQRVSVRRAQLQVVASSRKQMGRWRSIDAGVDASDDQ [c.-.c]”, the Localisation entry is on record as “Chloroplast (partial)”.

For “MSFLTTFKDLAIKAAKSAGQSVLSTLSCKLSNTC [B2I.K]”, the Localisation result is recorded as “Mitochondria”.

As for “MSFLTTFKDLAIKAAKSAGQSVLSTLSCKLSNTCLTQTAESFRGVSSQFFDAPNGPSVKQVLIEDEW [B2I.K.m]”, the Localisation entry is recorded as “Mitochondria”.

Consider “MSFLTTFKDLAIKAAKSAGQSVLSTLSCKLSNTCSVRRAQLQVVASSRKQMGRWRSIDAGVDASDDQ [B2I.K.c]”, for which the Localisation result was “Mitochondria”.

Source of the values: paper PMC10363480 (Plant Communications, 2023).
